In general, IC50 refers to the concentration needed to halve the response being measured. A high value points to lower potency.

Some results are limits rather than exact numbers.

The test deals with T1, cellular PARG (Homo sapiens, UniProt Q86W56).
T1 construct: endogenous in cells; host or cells: HeLa
T1 sequence (Q86W56 whole entry): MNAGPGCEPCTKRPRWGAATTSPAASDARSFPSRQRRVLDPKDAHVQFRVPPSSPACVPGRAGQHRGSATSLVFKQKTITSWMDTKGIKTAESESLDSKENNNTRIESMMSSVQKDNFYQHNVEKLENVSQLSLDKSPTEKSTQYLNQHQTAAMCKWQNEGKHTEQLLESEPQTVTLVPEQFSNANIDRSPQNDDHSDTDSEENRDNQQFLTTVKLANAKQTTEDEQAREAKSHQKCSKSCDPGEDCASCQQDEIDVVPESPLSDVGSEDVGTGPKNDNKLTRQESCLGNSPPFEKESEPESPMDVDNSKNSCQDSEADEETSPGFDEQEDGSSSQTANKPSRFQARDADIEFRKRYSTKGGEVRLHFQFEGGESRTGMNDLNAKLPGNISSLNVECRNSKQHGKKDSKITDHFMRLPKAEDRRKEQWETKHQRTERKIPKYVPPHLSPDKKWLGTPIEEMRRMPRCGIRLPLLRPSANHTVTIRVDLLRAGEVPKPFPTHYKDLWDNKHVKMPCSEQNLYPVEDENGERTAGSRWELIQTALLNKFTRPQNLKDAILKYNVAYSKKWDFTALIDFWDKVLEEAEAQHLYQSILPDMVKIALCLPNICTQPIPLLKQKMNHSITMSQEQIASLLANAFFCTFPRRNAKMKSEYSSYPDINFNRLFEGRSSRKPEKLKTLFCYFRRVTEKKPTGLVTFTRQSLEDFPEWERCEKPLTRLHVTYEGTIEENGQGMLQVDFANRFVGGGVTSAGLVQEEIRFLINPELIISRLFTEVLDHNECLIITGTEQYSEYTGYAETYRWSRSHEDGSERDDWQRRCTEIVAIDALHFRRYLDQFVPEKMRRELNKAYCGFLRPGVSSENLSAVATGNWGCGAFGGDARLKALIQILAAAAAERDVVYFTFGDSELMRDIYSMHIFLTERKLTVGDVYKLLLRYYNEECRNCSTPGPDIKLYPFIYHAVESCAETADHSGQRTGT
Put plainly: Nuclear PAR accumulation assay (immunofluorescence high-content imaging, MMS-treated HeLa cells). It counts as cell-based. To be noted: 1 hour compound then MMS 50 μg/mL for an additional hour. As to the method: HeLa cells were plated at 15,000 cells/well in a 96-well plate the day before compound treatment and then treated with varying concentrations of test compound and incubated for 1 hour at 37° C.+5% CO2. Following test compound treatment, methylmethane sulfonate (MMS) was added to a final concentration of 50 μg/mL and the cells were incubated for an additional hour. Following treatment, the cells were fixed with ice cold 95% methanol and the plates sealed and placed at -20° C. for 15 minutes. The cells were then washed once with phosphate buffered saline (PBS) and permeabilized with 0.10% Triton-X 100 for 20 minutes at room temperature. […] The cells were then washed three times with PBS before incubation with a fluorescently conjugated goat anti-mouse antibody (Invitrogen A32723) diluted 1:500 in 5% FBS+0.1% Tween-20+PBS for 1 hour at room temperature. The cells were again washed three times with PBS and the nuclei labeled by incubating with 1 μg/mL DAPI (4′,6-diamidino-2-phenylindole). Nuclear PAR accumulation was evaluated using high-content fluorescence microscopy. Four fields for each well were acquired at 20× magnification resulting in at least 1,000 cells analyzed per well. […] Both the average intensity per nucleus and percent PAR positive cells were quantified. […] Concentration-response-curves and IC50 values were generated using four parameter logistic curve fit software.
Representative data for exemplary compounds is presented in Table 32, Table 33 and Table 34.
In turn, `Cn1cc(CN2C(=O)c3cc(S(=O)(=O)NC4(C)CC4)cc(-c4ccc(F)cc4)c3N3CC(C)(C)N=C23)cn1` [Example 17, 9-(4-fluorophenyl)-2,2-dimethyl-4-((1-methyl-1H-pyrazol-4-yl)methyl)-N-(1-methylcyclopropyl)-5-oxo-1,2,4,5-tetrahydroimidazo[1,2-a]quinazoline-7-sulfonamide] returned an IC50 of less than 100 nM. To `Cn1cc(CN2C(=O)c3cc(S(=O)(=O)NC4(C)CC4)cc(Br)c3N3CCN=C23)cn1` [Example 18, 9-bromo-4-((1-methyl-1H-pyrazol-4-yl)methyl)-N-(1-methylcyclopropyl)-5-oxo-1,2,4,5-tetrahydroimidazo[1,2-a]quinazoline-7-sulfonamide] belongs 100 to 1000 nM. To `CC(C)OC[C@@H]1CN=C2N(Cc3cnn(C)c3)C(=O)c3cc(S(=O)(=O)NC4(C)CC4)ccc3N21` [Example 19, (S)-1-(isopropoxymethyl)-4-((1-methyl-1H-pyrazol-4-yl)methyl)-N-(1-methylcyclopropyl)-5-oxo-1,2,4,5-tetrahydroimidazo[1,2-a]quinazoline-7-sulfonamide] belongs less than 100 nM; to `Cc1cc(F)ccc1-c1cc(S(=O)(=O)NC2(C)CC2)cc2c1N1CCN=C1N(Cc1cnn(C)c1)C2=O` [Example 20, 9-(4-fluoro-2-methylphenyl)-4-((1-methyl-1H-pyrazol-4-yl)methyl)-N-(1-methylcyclopropyl)-5-oxo-1,2,4,5-tetrahydroimidazo[1,2-a]quinazoline-7-sulfonamide], less than 100 nM. To `Cn1cc(CN2C(=O)c3cc(S(=O)(=O)NC4(C)CC4)cc(-c4ccc(Cl)cc4)c3N3CCN=C23)cn1` [Example 21, 9-(4-chlorophenyl)-4-((1-methyl-1H-pyrazol-4-yl)methyl)-N-(1-methylcyclopropyl)-5-oxo-1,2,4,5-tetrahydroimidazo[1,2-a]quinazoline-7-sulfonamide] belongs 100 to 1000 nM; to `C[C@@H]1CN=C2N(Cc3cnn(C)c3)C(=O)c3cc(S(=O)(=O)NC4(C)CC4)cc(C4CCN(C)CC4)c3N21` [Example 22, (R)-1-methyl-4-((1-methyl-1H-pyrazol-4-yl)methyl)-N-(1-methylcyclopropyl)-9-(1-methylpiperidin-4-yl)-5-oxo-1,2,4,5-tetrahydroimidazo[1,2-a]quinazoline-7-sulfonamide], 100 to 1000 nM.

In the case of `C[C@@H]1CN=C2N(Cc3cn(C)nc3C(F)(F)F)C(=O)c3cc(S(=O)(=O)NC4(C)CC4)cc(Br)c3N21` [Example 23, (R)-9-bromo-1-methyl-4-((1-methyl-3-(trifluoromethyl)-1H-pyrazol-4-yl)methyl)-N-(1-methylcyclopropyl)-5-oxo-1,2,4,5-tetrahydroimidazo[1,2-a]quinazoline-7-sulfonamide], the IC50 is less than 100 nM.

The compound `C[C@@H]1CN=C2N(Cc3cn(C)nc3C(F)F)C(=O)c3cc(S(=O)(=O)NC4(C)CC4)ccc3N21` [Example 24, (R)-4-((3-(difluoromethyl)-1-methyl-1H-pyrazol-4-yl)methyl)-1-methyl-N-(1-methylcyclopropyl)-5-oxo-1,2,4,5-tetrahydroimidazo[1,2-a]quinazoline-7-sulfonamide] had an IC50 of less than 100 nM. To `Cc1cc(F)ccc1-c1cc(S(=O)(=O)NC2(C)CC2)cc2c1N1CC(C)(C)N=C1N(Cc1cnn(C)c1)C2=O` [Example 25, 9-(4-fluoro-2-methylphenyl)-2,2-dimethyl-4-((1-methyl-1H-pyrazol-4-yl)methyl)-N-(1-methylcyclopropyl)-5-oxo-1,2,4,5-tetrahydroimidazo[1,2-a]quinazoline-7-sulfonamide] belongs less than 100 nM. To `Cn1cc(CN2C(=O)c3cc(S(=O)(=O)NC4(C)CC4)cc(C4=CCCC4)c3N3CCN=C23)cn1` [Example 26, 9-(cyclopent-1-en-1-yl)-4-((1-methyl-1H-pyrazol-4-yl)methyl)-N-(1-methylcyclopropyl)-5-oxo-1,2,4,5-tetrahydroimidazo[1,2-a]quinazoline-7-sulfonamide] belongs 100 to 1000 nM; to `C[C@@H]1CN=C2N(Cc3cnn(C)c3)C(=O)c3cc(S(=O)(=O)NC4(C)CC4)cc(N4CCC(O)CC4)c3N21` [Example 27, (R)-9-(4-hydroxypiperidin-1-yl)-1-methyl-4-((1-methyl-1H-pyrazol-4-yl)methyl)-N-(1-methylcyclopropyl)-5-oxo-1,2,4,5-tetrahydroimidazo[1,2-a]quinazoline-7-sulfonamide], 100 to 1000 nM; to `Cn1cc(CN2C(=O)c3cc(S(=O)(=O)NC4(C)CC4)ccc3N3C2=NC[C@H]3COc2ccccc2)cn1` [Example 28, (S)-4-((1-methyl-1H-pyrazol-4-yl)methyl)-N-(1-methylcyclopropyl)-5-oxo-1-(phenoxymethyl)-1,2,4,5-tetrahydroimidazo[1,2-a]quinazoline-7-sulfonamide], less than 100 nM. To `Cn1cc(CN2C(=O)c3cc(S(=O)(=O)NC4(C)CC4)ccc3N3C2=NC[C@H]3COc2ccc(F)cc2)cn1` [Example 29, (S)-1-((4-fluorophenoxy)methyl)-4-((1-methyl-1H-pyrazol-4-yl)methyl)-N-(1-methylcyclopropyl)-5-oxo-1,2,4,5-tetrahydroimidazo[1,2-a]quinazoline-7-sulfonamide] belongs less than 100 nM; to `Cn1cc(CN2C(=O)c3cc(S(=O)(=O)NC4(C)CC4)ccc3N3C2=NC[C@H]3COc2cccc(F)c2)cn1` [Example 30, (S)-1-((3-fluorophenoxy)methyl)-4-((1-methyl-1H-pyrazol-4-yl)methyl)-N-(1-methylcyclopropyl)-5-oxo-1,2,4,5-tetrahydroimidazo[1,2-a]quinazoline-7-sulfonamide], less than 100 nM; to `CN(C)CC#C[C@@H]1CN=C2N(Cc3cnn(C)c3)C(=O)c3cc(S(=O)(=O)NC4(C)CC4)ccc3N21` [Example 31, (R)-1-(3-(dimethylamino)prop-1-yn-1-yl)-4-((1-methyl-1H-pyrazol-4-yl)methyl)-N-(1-methylcyclopropyl)-5-oxo-1,2,4,5-tetrahydroimidazo[1,2-a]quinazoline-7-sulfonamide], less than 100 nM. `Cc1cc(F)ccc1-c1cc(S(=O)(=O)NC2(C)CC2)cc2c1N1C(=NC[C@H]1C)N(Cc1cnn(C)c1)C2=O` [Example 32, (R)-9-(4-fluoro-2-methylphenyl)-1-methyl-4-((1-methyl-1H-pyrazol-4-yl)methyl)-N-(1-methylcyclopropyl)-5-oxo-1,2,4,5-tetrahydroimidazo[1,2-a]quinazoline-7-sulfonamide]: the IC50 is less than 100 nM. The same measure for `C[C@@H]1CN=C2N(C)C(=O)c3cc(S(=O)(=O)NC4(C)CC4)cc(N4CCN(C(=O)N(C)C)CC4)c3N21` [Example 33, (R)-4-(1,4-dimethyl-7-(N-(1-methylcyclopropyl)sulfamoyl)-5-oxo-1,2,4,5-tetrahydroimidazo[1,2-a]quinazolin-9-yl)-N,N-dimethylpiperazine-1-carboxamide]: less than 100 nM.

Consider `CN1C(=O)c2cc(S(=O)(=O)NC3(C)CC3)cc(Br)c2N2C1=NC[C@H]2C#CC1CC1` [Example 34, (R)-9-bromo-1-(cyclopropylethynyl)-4-methyl-N-(1-methylcyclopropyl)-5-oxo-1,2,4,5-tetrahydroimidazo[1,2-a]quinazoline-7-sulfonamide], for which the IC50 is less than 100 nM. Consider `Cn1cc(C#C[C@@H]2CN=C3N(Cc4cnn(C)c4)C(=O)c4cc(S(=O)(=O)NC5(C)CC5)ccc4N32)cn1` [Example 35, (R)-1-((1-methyl-1H-pyrazol-4-yl)ethynyl)-4-((1-methyl-1H-pyrazol-4-yl)methyl)-N-(1-methylcyclopropyl)-5-oxo-1,2,4,5-tetrahydroimidazo[1,2-a]quinazoline-7-sulfonamide], for which the half-maximal inhibitory concentration (IC50) is less than 100 nM. To `Cn1cc(CN2C(=O)c3cc(S(=O)(=O)NC4(C)CC4)ccc3N3C2=NC[C@H]3C#Cc2ccccc2)cn1` [Example 36, (R)-4-((1-methyl-1H-pyrazol-4-yl)methyl)-N-(1-methylcyclopropyl)-5-oxo-1-(phenylethynyl)-1,2,4,5-tetrahydroimidazo[1,2-a]quinazoline-7-sulfonamide] belongs less than 100 nM. To `C[C@@H]1CN=C2N(Cc3cnn(C)c3)C(=O)c3cc(S(=O)(=O)NC4(C)CC4)cc(N4CCC(C(=O)N(C)C)CC4)c3N21` [Example 37, (R)-N,N-dimethyl-1-(1-methyl-4-((1-methyl-1H-pyrazol-4-yl)methyl)-7-(N-(1-methylcyclopropyl)sulfamoyl)-5-oxo-1,2,4,5-tetrahydroimidazo[1,2-a]quinazolin-9-yl)piperidine-4-carboxamide] belongs 100 to 1000 nM; to `C#C[C@@H]1CN=C2N(C)C(=O)c3cc(S(=O)(=O)NC4(C)CC4)cc(Br)c3N21` [Example 38, (R)-9-bromo-1-ethynyl-4-methyl-N-(1-methylcyclopropyl)-5-oxo-1,2,4,5-tetrahydroimidazo[1,2-a]quinazoline-7-sulfonamide], less than 100 nM.

For the compound `Cn1cc(CN2C(=O)c3cc(S(=O)(=O)NC4(C)CC4)ccc3N3C2=NC[C@H]3CC(F)(F)F)cn1` [Example 39, (R)-4-((1-methyl-1H-pyrazol-4-yl)methyl)-N-(1-methylcyclopropyl)-5-oxo-1-(2,2,2-trifluoroethyl)-1,2,4,5-tetrahydroimidazo[1,2-a]quinazoline-7-sulfonamide], the IC50 was less than 100 nM.

Source of the values: patent US20260285875A1, “INHIBITORS OF PARG” (858 Therapeutics, Inc., priority 2023, published 2026).
